Results reported in patent US20070135383A1, “Phospholipase inhibitors, including multi-valent phospholipase inhibitors, and use thereof, including as lumen-localized phospholipase inhibitors” (priority 2005, published 2007).

Test: Bioavailability study, IV vs oral (Example 13)
Assay type: in vivo, male CD-1 mice
Settings: male, CD-1, mouse, plasma; oral ~30 mg/kg vs IV ~3 mg/kg
Protocol: Bioavailability was determined for Compound 5-24 (ILY-V-24) as follows. Generally, the bioavailability was calculated by comparing a timecourse of the concentration of the test compound in the serum of mice after an intravenous (IV) dosing, versus the timecourse of the concentration following an oral dosing of the test compound. The IV dose was ˜3 mg/kg, the oral dose was ˜30 mg/kg.
Oral Formulation. The oral formulation was prepared as follows. To sterile flask, 90 ml of sterile Milli-Q water was added. 9 ml of PEG-400 was added (final concentration of 9%). 50 ul of Tween-80 was added (final concentration of 0.05%). 0.9 g of CMC was weighed and added (final concentration of 0.9% w/v). […]
Study Design. […] On study day 0, all the animals were weighed, dosages were calculated and the animals were dosed by oral route (PO) or (IV) as outlined below in Table 5. […]
Calculations. Bioavailability was calculated as follows. Individual doses were calculated based on an average of body weights taken on the day of dosing. Serum concentrations of test compound, as well as the actual concentration of dosing solutions, were measured using 2-dimensional Mass Spectrophotometry after Liquid Chromatography (LC MS/MS). […]

**Q.** For `Cc1c(C(=O)C(N)=O)c2c(OCC(=O)O)cccc2n1CCCCCCCCSCCCCCCCCSCCCCCCCCn1c(C)c(C(=O)C(N)=O)c2c(OCC(=O)O)cccc21` [ILY-V-24, 2,2′-(1,1′-(8,8′-(Octane-1,8-diylbis(sulfanediyl))bis(octane-8,1-diyl))bis(3-(2-amino-2-oxoacetyl)-2-methyl-1H-indole-4,1-diyl))bis(oxy)diacetic acid], which bioavailability is on record?
**A.** Its bioavailability is 4 to 8%.
